Assay results published in the supplement of paper PMC13207355.
Counter-ions that a name gives are not always drawn.

How the values were obtained:
Details in all cases: exposure time: 72 h
E31 [1] = patient-derived glioblastoma stem cells of proneural subtype; assay: phenotypic distance (Euclidean, principal components) from DMSO controls (arbitrary units); higher = stronger morphological change
E34 [2] = patient-derived glioblastoma stem cells of proneural subtype; assay: as above
E13 [3] = patient-derived glioblastoma stem cells of classical subtype; assay: as above
E28 [4] = patient-derived glioblastoma stem cells of classical subtype; assay: as above
E21 [5] = patient-derived glioblastoma stem cells of mesenchymal subtype; assay: as above
FT3469 [6] = normal neural stem cell line; assay: as above
E57 [7] = patient-derived glioblastoma stem cells of mesenchymal subtype; assay: as above
E31 [8] = assay: surviving fraction (nuclei count normalised to DMSO); higher = more cells surviving (less toxic)
E34 [9] = assay: as above
E13 [10] = assay: as above
E28 [11] = assay: as above
E21 [12] = assay: as above
FT3469 [13] = assay: as above
E57 [14] = assay: as above
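Wherever phenotypic distance (Euclidean, principal components) from DMSO controls is given: cell Painting imaging in 384-well plates, CellProfiler features reduced to at least 20 principal components, Euclidean distance versus same-plate DMSO vehicle wells (0.1% v/v), median over six images per well.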
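Wherever surviving fraction (nuclei count normalised to DMSO) is given: nuclei counted by high-content imaging of Hoechst-stained cells in laminin-coated 384-well plates, relative to 0.1% DMSO vehicle wells, with staurosporine as cell-death control.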

CCN(CC)CCCC(C)Nc1c2ccc(Cl)cc2nc2ccc(OC)cc12 (stereo unspecified) [Quinacrine dihydrochloride hydrate]
Details	phenotypic distance	surviving fraction
E13 [3], 4.11523 nM	0.636	–
E13 [3], 12.34567901 nM	0.492	–
E13 [3], 37.037 nM	0.777	–
E13 [3], 111.1111111 nM	0.595	–
E13 [3], 333.333 nM	2.11	–
E13 [3], 1000 nM	3.45	–
E13 [3], 3000 nM	1.42	–
E13 [10], 4.11523 nM	–	0.934
E13 [10], 12.34567901 nM	–	0.901
E13 [10], 37.037 nM	–	0.789
E13 [10], 111.1111111 nM	–	0.985
E13 [10], 333.333 nM	–	0.993
E13 [10], 1000 nM	–	0.911
E13 [10], 3000 nM	–	0.709
E21 [5], 4.11523 nM	0.539	–
E21 [5], 12.34567901 nM	0.4	–
E21 [5], 37.037 nM	0.451	–
E21 [5], 111.1111111 nM	0.853	–
E21 [5], 333.333 nM	0.649	–
E21 [5], 1000 nM	1.12	–
E21 [5], 3000 nM	1.66	–
E21 [12], 4.11523 nM	–	0.908
E21 [12], 12.34567901 nM	–	0.974
E21 [12], 37.037 nM	–	1
E21 [12], 111.1111111 nM	–	0.955
E21 [12], 333.333 nM	–	1.05
E21 [12], 1000 nM	–	1.09
E21 [12], 3000 nM	–	0.71
E28 [4], 4.11523 nM	0.665	–
E28 [4], 12.34567901 nM	0.451	–
E28 [4], 37.037 nM	0.457	–
E28 [4], 111.1111111 nM	0.704	–
E28 [4], 333.333 nM	0.722	–
E28 [4], 1000 nM	0.455	–
E28 [4], 3000 nM	1.98	–
E28 [11], 4.11523 nM	–	1.09
E28 [11], 12.34567901 nM	–	1.03
E28 [11], 37.037 nM	–	0.987
E28 [11], 111.1111111 nM	–	1.11
E28 [11], 333.333 nM	–	1.05
E28 [11], 1000 nM	–	1.13
E28 [11], 3000 nM	–	0.69
E31 [1], 4.11523 nM	1.19	–
E31 [1], 12.34567901 nM	0.694	–
E31 [1], 37.037 nM	0.513	–
E31 [1], 111.1111111 nM	0.784	–
E31 [1], 333.333 nM	0.524	–
E31 [1], 1000 nM	0.913	–
E31 [1], 3000 nM	2.12	–
E31 [8], 4.11523 nM	–	0.883
E31 [8], 12.34567901 nM	–	1.02
E31 [8], 37.037 nM	–	1.06
E31 [8], 111.1111111 nM	–	1.14
E31 [8], 333.333 nM	–	0.914
E31 [8], 1000 nM	–	1.16
E31 [8], 3000 nM	–	0.516
E34 [2], 4.11523 nM	0.829	–
E34 [2], 12.34567901 nM	1.53	–
E34 [2], 37.037 nM	0.456	–
E34 [2], 111.1111111 nM	0.849	–
E34 [2], 333.333 nM	1.06	–
E34 [2], 1000 nM	1.21	–
E34 [2], 3000 nM	0.812	–
E34 [9], 4.11523 nM	–	0.882
E34 [9], 12.34567901 nM	–	0.943
E34 [9], 37.037 nM	–	0.902
E34 [9], 111.1111111 nM	–	0.99
E34 [9], 333.333 nM	–	1.21
E34 [9], 1000 nM	–	0.998
E34 [9], 3000 nM	–	0.806
E57 [7], 4.11523 nM	1.09	–
E57 [7], 12.34567901 nM	1.14	–
E57 [7], 37.037 nM	0.424	–
E57 [7], 111.1111111 nM	0.923	–
E57 [7], 333.333 nM	0.838	–
E57 [7], 1000 nM	1.18	–
E57 [7], 3000 nM	2.11	–
E57 [14], 4.11523 nM	–	0.945
E57 [14], 12.34567901 nM	–	1.05
E57 [14], 37.037 nM	–	0.97
E57 [14], 111.1111111 nM	–	1.13
E57 [14], 333.333 nM	–	1.04
E57 [14], 1000 nM	–	1.1
E57 [14], 3000 nM	–	1.04
FT3469 [6], 4.11523 nM	0.574	–
FT3469 [6], 12.34567901 nM	0.546	–
FT3469 [6], 37.037 nM	0.759	–
FT3469 [6], 111.1111111 nM	0.562	–
FT3469 [6], 333.333 nM	0.547	–
FT3469 [6], 1000 nM	0.651	–
FT3469 [6], 3000 nM	2.59	–
FT3469 [13], 4.11523 nM	–	1.04
FT3469 [13], 12.34567901 nM	–	1.01
FT3469 [13], 37.037 nM	–	0.948
FT3469 [13], 111.1111111 nM	–	1.1
FT3469 [13], 333.333 nM	–	1.02
FT3469 [13], 1000 nM	–	1.1
FT3469 [13], 3000 nM	–	0.826

C#C[C@]1(O)CC[C@H]2[C@@H]3CCc4cc(OC5CCCC5)ccc4[C@H]3CC[C@@]21C [Quinestrol]
Details	phenotypic distance	surviving fraction
E13 [3], 4.1 nM	0.478	–
E13 [3], 12.3 nM	0.526	–
E13 [3], 37 nM	0.837	–
E13 [3], 111.1 nM	0.697	–
E13 [3], 333.3 nM	0.689	–
E13 [3], 1000 nM	1.18	–
E13 [3], 3000 nM	7.05	–
E13 [10], 4.1 nM	–	1.06
E13 [10], 12.3 nM	–	1.04
E13 [10], 37 nM	–	1.11
E13 [10], 111.1 nM	–	1.07
E13 [10], 333.3 nM	–	1.02
E13 [10], 1000 nM	–	0.946
E13 [10], 3000 nM	–	0.347
E21 [5], 4.1 nM	0.608	–
E21 [5], 12.3 nM	0.48	–
E21 [5], 37 nM	0.746	–
E21 [5], 111.1 nM	0.53	–
E21 [5], 333.3 nM	0.819	–
E21 [5], 1000 nM	2.32	–
E21 [5], 3000 nM	6.37	–
E21 [12], 4.1 nM	–	1.01
E21 [12], 12.3 nM	–	0.938
E21 [12], 37 nM	–	1.05
E21 [12], 111.1 nM	–	0.982
E21 [12], 333.3 nM	–	1.02
E21 [12], 1000 nM	–	0.873
E21 [12], 3000 nM	–	0.617
E28 [4], 4.1 nM	0.438	–
E28 [4], 12.3 nM	2.42	–
E28 [4], 37 nM	0.788	–
E28 [4], 111.1 nM	0.466	–
E28 [4], 333.3 nM	0.753	–
E28 [4], 1000 nM	0.514	–
E28 [4], 3000 nM	0.675	–
E28 [11], 4.1 nM	–	1.13
E28 [11], 12.3 nM	–	1.04
E28 [11], 37 nM	–	1.08
E28 [11], 111.1 nM	–	1.1
E28 [11], 333.3 nM	–	1.04
E28 [11], 1000 nM	–	1.19
E28 [11], 3000 nM	–	1.01
E31 [1], 4.1 nM	0.447	–
E31 [1], 12.3 nM	0.67	–
E31 [1], 37 nM	1.03	–
E31 [1], 111.1 nM	0.71	–
E31 [1], 333.3 nM	0.698	–
E31 [1], 1000 nM	0.864	–
E31 [1], 3000 nM	3.81	–
E31 [8], 4.1 nM	–	1.02
E31 [8], 12.3 nM	–	0.942
E31 [8], 37 nM	–	1.09
E31 [8], 111.1 nM	–	1.07
E31 [8], 333.3 nM	–	0.981
E31 [8], 1000 nM	–	1.01
E31 [8], 3000 nM	–	0.848
E34 [2], 4.1 nM	0.544	–
E34 [2], 12.3 nM	0.554	–
E34 [2], 37 nM	0.597	–
E34 [2], 111.1 nM	0.985	–
E34 [2], 333.3 nM	1.09	–
E34 [2], 1000 nM	0.707	–
E34 [2], 3000 nM	1.82	–
E34 [9], 4.1 nM	–	1.01
E34 [9], 12.3 nM	–	1.07
E34 [9], 37 nM	–	1.01
E34 [9], 111.1 nM	–	1.07
E34 [9], 333.3 nM	–	1.15
E34 [9], 1000 nM	–	0.967
E34 [9], 3000 nM	–	0.918
E57 [7], 4.1 nM	1.71	–
E57 [7], 12.3 nM	1.01	–
E57 [7], 37 nM	0.583	–
E57 [7], 111.1 nM	0.81	–
E57 [7], 333.3 nM	0.452	–
E57 [7], 1000 nM	0.7	–
E57 [7], 3000 nM	3.72	–
E57 [14], 4.1 nM	–	1.05
E57 [14], 12.3 nM	–	1.05
E57 [14], 37 nM	–	1.01
E57 [14], 111.1 nM	–	1.06
E57 [14], 333.3 nM	–	1.01
E57 [14], 1000 nM	–	1.03
E57 [14], 3000 nM	–	0.693
FT3469 [6], 4.1 nM	0.479	–
FT3469 [6], 12.3 nM	0.739	–
FT3469 [6], 37 nM	0.643	–
FT3469 [6], 111.1 nM	1.01	–
FT3469 [6], 333.3 nM	0.84	–
FT3469 [6], 1000 nM	0.699	–
FT3469 [6], 3000 nM	1.58	–
FT3469 [13], 4.1 nM	–	0.963
FT3469 [13], 12.3 nM	–	1.03
FT3469 [13], 37 nM	–	1.11
FT3469 [13], 111.1 nM	–	1.09
FT3469 [13], 333.3 nM	–	1.2
FT3469 [13], 1000 nM	–	0.888
FT3469 [13], 3000 nM	–	0.938
